Like-named read-outs stand apart in the source and are kept apart here.
Assays:
[1] = target: rat orexin 1 receptor (Rattus norvegicus (Rat), UniProt P56718); assay: Rat orexin 1 receptor radioligand binding (competitive binding, HEK293 membranes)
[2] = target: human orexin 2 receptor (Homo sapiens (Human), UniProt O43614); assay: Human orexin 2 receptor radioligand binding ([3H]-EMPA competition, HEK293 membranes)
[3] = Table 2, further testing, averages from 2-20 runs, read-out: rOX1 Ki
[4] = Table 2, further testing, averages from 2-20 runs, read-out: hOX2 Ki
[5] = human orexin 2 receptor, Table 2, averages of 2-20 runs, read-out: hOX2 Ki
[6] = rat orexin 1 receptor, Table 2, averages from between 2-20 runs, read-out: rOX1 Ki
[7] = human orexin 2 receptor, Table 2, averages from between 2-20 runs, read-out: hOX2 Ki

rat orexin 1 receptor, sequence (P56718 whole entry): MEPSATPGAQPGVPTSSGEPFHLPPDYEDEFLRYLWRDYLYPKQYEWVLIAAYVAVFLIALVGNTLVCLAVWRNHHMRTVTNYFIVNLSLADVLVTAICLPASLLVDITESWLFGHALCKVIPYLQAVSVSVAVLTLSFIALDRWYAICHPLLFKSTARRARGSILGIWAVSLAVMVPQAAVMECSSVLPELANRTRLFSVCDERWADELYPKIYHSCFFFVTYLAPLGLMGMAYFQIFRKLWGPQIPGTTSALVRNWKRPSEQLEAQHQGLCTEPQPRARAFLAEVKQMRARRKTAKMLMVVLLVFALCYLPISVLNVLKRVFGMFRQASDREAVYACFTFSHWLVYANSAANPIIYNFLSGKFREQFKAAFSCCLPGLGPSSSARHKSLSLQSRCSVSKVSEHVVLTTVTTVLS
human orexin 2 receptor, sequence (O43614 whole entry): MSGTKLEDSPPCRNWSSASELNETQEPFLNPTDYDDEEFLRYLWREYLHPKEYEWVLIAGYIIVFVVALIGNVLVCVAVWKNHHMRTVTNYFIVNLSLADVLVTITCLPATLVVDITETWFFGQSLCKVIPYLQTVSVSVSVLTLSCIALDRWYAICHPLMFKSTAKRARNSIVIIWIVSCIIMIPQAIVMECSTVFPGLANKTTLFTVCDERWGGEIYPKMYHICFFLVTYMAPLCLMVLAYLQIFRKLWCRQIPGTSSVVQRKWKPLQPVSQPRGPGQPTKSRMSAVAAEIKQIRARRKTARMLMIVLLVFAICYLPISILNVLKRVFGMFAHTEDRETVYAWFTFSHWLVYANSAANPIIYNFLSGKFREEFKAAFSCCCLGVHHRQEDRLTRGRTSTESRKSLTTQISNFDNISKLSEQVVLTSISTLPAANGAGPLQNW

Compound | Ki [1, 6] | Ki [2, 7] | also measured
Cc1cnc(-c2ncccn2)c(C(=O)N2[C@@H]3CC[C@H]2[C@H](Nc2ncc(C(F)(F)F)cc2F)C3)c1 [Example 455, ((1S,2R,4R)-2-((3-fluoro-5-(trifluoromethyl)pyridin-2-yl)amino)-7-azabicyclo[2.2.1]heptan-7-yl)(5-methyl-2-(pyrimidin-2-yl)pyridin-3-yl)methanone] | – | – | Ki [1, 3]: 464 nM; Ki [2, 4]: > 10000 nM
O=C(c1cc(F)ccc1-c1ncccn1)N1C2CCC1C(COc1ccc(F)cn1)C2 (racemic) [Example 32, (4)-(5-fluoro-2-(pyrimidin-2-yl)phenyl)(2-(((5-fluoropyridin-2-yl)oxy)methyl)-7-azabicyclo[2.2.1]heptan-7-yl)methanone] | – | – | Ki [2, 5]: 130 nM
O=C(c1cccc(F)c1-c1ncccn1)N1[C@@H]2CC[C@H]1[C@H](Nc1nnc(C(F)(F)F)s1)C2 [Example 419, (3-fluoro-2-(pyrimidin-2-yl)phenyl)((1S,2R,4R)-2-((5-(trifluoromethyl)-1,3,4-thiadiazol-2-yl)amino)-7-azabicyclo[2.2.1]heptan-7-yl)methanone] | 853 nM | 7400 nM | –
O=C(c1cccnc1-n1nccn1)N1[C@@H]2CC[C@H]1[C@H](Nc1cnc(C(F)(F)F)cn1)C2 [Example 402, (2-(2H-1,2,3-triazol-2-yl)pyridin-3-yl)((1S,2R,4R)-2-((5-(trifluoromethyl)pyrazin-2-yl)amino)-7-azabicyclo[2.2.1]heptan-7-yl)methanone] | 575 nM | > 10000 nM | –
O=C(c1c(F)cccc1-n1nccn1)N1C2CCC1C(Oc1ccc(C(F)(F)F)cn1)C2 (racemic) [Example 425] | 587 nM | – | Ki [2]: 5100 nM
Cc1cnc(-c2ncccn2)c(C(=O)N2[C@@H]3CC[C@H]2[C@H](Nc2ccc(C(F)(F)F)cn2)C3)c1 [Example 378, (5-methyl-2-(pyrimidin-2-yl)pyridin-3-yl)((1S,2R,4R)-2-((5-(trifluoromethyl)pyridin-2-yl)amino)-7-azabicyclo[2.2.1]heptan-7-yl)methanone] | 310 nM | > 10000 nM | –
Cc1cccc(C(=O)N2[C@@H]3CC[C@H]2[C@H](Nc2cnc(C(F)(F)F)cn2)C3)c1-c1ncco1 [Example 266, (3-methyl-2-(oxazol-2-yl)phenyl)((1S,2R,4R)-2-((5-(trifluoromethyl)pyrazin-2-yl)amino)-7-azabicyclo[2.2.1]heptan-7-yl)methanone] | 6 nM | – | –
O=C(c1cccc(F)c1-n1nccn1)N1C2CCC1C(Oc1ncc(Br)cn1)C2 (racemic) [Example 441] | – | > 10000 nM | Ki [1]: 1500 nM
Cc1cccc(C(=O)N2C3CCC2C(Oc2ccc(C(F)(F)F)nc2)C3)c1-n1nccn1 (racemic) [Example 437] | – | > 10000 nM | Ki [1]: > 10000 nM
Cc1ccc(C(=O)N2C3CCC2C(Oc2cnc(C(F)(F)F)cn2)C3)c(-n2nccn2)n1 (racemic) [Example 446, (R/S)-(6-methyl-2-(2H-1,2,3-triazol-2-yl)pyridin-3-yl)(2-((5-(trifluoromethyl)pyrazin-2-yl)oxy)-7-azabicyclo[2.2.1]heptan-7-yl)methanone] | – | – | Ki [1, 3]: 4700 nM; Ki [2, 4]: > 10000 nM
O=C(c1cccc(F)c1-n1nccn1)N1C2CCC1C(Oc1cnc(C(F)(F)F)cn1)C2 (racemic) [Example 445, (R/S)-(3-fluoro-2-(2H-1,2,3-triazol-2-yl)phenyl)(2-((5-(trifluoromethyl)pyrazin-2-yl)oxy)-7-azabicyclo[2.2.1]heptan-7-yl)methanone] | – | – | Ki [1, 3]: 460 nM; Ki [2, 4]: > 10000 nM
COc1c(F)cccc1C(=O)N1C2CCC1C(Nc1ccc(F)cn1)C2 (racemic) [Example 237, (±)-(3-fluoro-2-methoxyphenyl)(2-((5-fluoropyridin-2-yl)amino)-7-azabicyclo[2.2.1]heptan-7-yl)methanone] | > 1000 nM | – | –
O=C(c1cccnc1-n1nccn1)N1C2CCC1C(Oc1ccc(C(F)(F)F)cn1)C2 (racemic) [Example 426] | – | – | Ki [1]: 5400 nM; Ki [2]: > 10000 nM
Cc1cnc(-c2ncccn2)c(C(=O)N2[C@@H]3CC[C@H]2[C@H](Nc2cnc(C(F)(F)F)cn2)C3)c1 [Example 404, (5-methyl-2-(pyrimidin-2-yl)pyridin-3-yl)((1S,2R,4R)-2-((5-(trifluoromethyl)pyrazin-2-yl)amino)-7-azabicyclo[2.2.1]heptan-7-yl)methanone] | 419 nM | > 10000 nM | –
Cc1cnc(-n2nccn2)c(C(=O)N2C3CCC2C(Oc2ccc(C(F)(F)F)cn2)C3)c1 (racemic) [Example 428] | – | > 10000 nM | Ki [1]: 1100 nM
O=C(c1ccccc1-c1cccs1)N1C2CCC1C(COc1ccc(F)cn1)C2 (racemic) [Example 11, (±)-(2-(((5-fluoropyridin-2-yl)oxy)methyl)-7-azabicyclo[2.2.1]heptan-7-yl)(2-(thiophen-2-yl)phenyl)methanone] | – | – | Ki [2]: 13 nM
Cc1ccc(C(=O)N2C3CCC2C(Oc2ccc(C(F)(F)F)cn2)C3)c(-n2nccn2)n1 (racemic) [Example 427] | – | > 10000 nM | Ki [1]: 560 nM
O=C(c1cccc(F)c1-c1ncccn1)N1C2CCC1C(Oc1cnc(C(F)(F)F)cn1)C2 (racemic) [Example 447, (R/S)-(3-fluoro-2-(pyrimidin-2-yl)phenyl)(2-((5-(trifluoromethyl)pyrazin-2-yl)oxy)-7-azabicyclo[2.2.1]heptan-7-yl)methanone] | – | – | Ki [1, 3]: 293 nM; Ki [2, 4]: > 10000 nM
O=C(c1c(F)cccc1-n1nccn1)N1C2CCC1C(Oc1ccc(C(F)(F)F)nc1)C2 (racemic) [Example 439] | > 10000 nM | > 10000 nM | –
O=C(c1cccc(F)c1-n1nccn1)N1C2CCC1C(Oc1cnc3ccccc3n1)C2 (racemic) [Example 442] | 349 nM | 1900 nM | –
Cc1coc(-c2ccc(C)nc2C(=O)N2[C@@H]3CC[C@H]2[C@H](COc2ncc(F)cn2)C3)n1 [Example 179, ((1S,2R,4R)-2-(((5-fluoropyrimidin-2-yl)oxy)methyl)-7-azabicyclo[2.2.1]heptan-7-yl)(6-methyl-3-(4-methyloxazol-2-yl)pyridin-2-yl)methanone] | – | – | Ki ([1]; rat orexin 1 receptor, Table 2, averages of 2-20 runs, read-out: rOX1 Ki): 2400 nM; Ki [2, 5]: 5400 nM
O=C(c1cccc(F)c1-n1nccn1)N1C2CCC1C(Oc1cc(Br)cnc1Cl)C2 (racemic) [Example 443] | > 10000 nM | > 10000 nM | –
O=C(c1cccc(F)c1-n1nccn1)N1C2CCC1C(Oc1ccc(C(F)(F)F)nc1)C2 (racemic) [Example 438] | > 10000 nM | > 10000 nM | –
O=C(c1cccc(F)c1-n1ccnn1)N1C2CCC1C(Oc1ccc(C(F)(F)F)cn1)C2 (racemic) [Example 424] | 2700 nM | > 10000 nM | –
O=C(c1cccc(F)c1-c1ncccn1)N1[C@@H]2CC[C@H]1[C@H](Nc1nc(C(F)(F)F)cs1)C2 [Example 418, (3-fluoro-2-(pyrimidin-2-yl)phenyl)((1S,2R,4R)-2-((4-(trifluoromethyl)thiazol-2-yl)amino)-7-azabicyclo[2.2.1]heptan-7-yl)methanone] | 459 nM | 2500 nM | –
COc1ccc(C(=O)N2[C@@H]3CC[C@H]2[C@H](Nc2cnc(C(F)(F)F)cn2)C3)c(Cl)n1 [Example 413, (2-chloro-6-methoxypyridin-3-yl)((1S,2R,4R)-2-((5-(trifluoromethyl)pyrazin-2-yl)amino)-7-azabicyclo[2.2.1]heptan-7-yl)methanone] | > 10000 nM | > 10000 nM | –

— patent US9637496B2, “Substituted 7-azabicycles and their use as orexin receptor modulators” (priority 2013, dated 2017)
